Data taken from US20150342954A1, “2-BENZYL, 3-(PYRIMIDIN-2-YL) SUBSTITUTED PYRAZOLES USEFUL AS SGC STIMULATORS” (IRONWOOD PHARMACEUTICALS, INC., priority 2011, published 2015).
Like-named read-outs stand apart in the source and are kept apart here.

What was measured:
[1] = molecular target: T1, soluble guanylate cyclase (sGC) (Homo sapiens, UniProt Q02108+Q02153); test: sGC-HEK-cGMP assay (run with SNP incubation); type: cell-based; conditions: for Emax: Table 3A, 10 μM SNP, 100% = 30 μM BAY 41-2272 with 10 μM SNP, read-out: HEK assay Emax-unconstrained (Percent); for HEK MEC-10: concentration that would elicit 10% of the Emax in the presence of 10 μM SNP; for HEK MEC-10 / EC50: Table 3D; for EC50: in the presence of 10 μM SNP
T1 construct: endogenously expressing soluble guanylate cyclase (sGC); endogenous in cells; host or cells: HEK293
T1 sequence (Q02153 1-619): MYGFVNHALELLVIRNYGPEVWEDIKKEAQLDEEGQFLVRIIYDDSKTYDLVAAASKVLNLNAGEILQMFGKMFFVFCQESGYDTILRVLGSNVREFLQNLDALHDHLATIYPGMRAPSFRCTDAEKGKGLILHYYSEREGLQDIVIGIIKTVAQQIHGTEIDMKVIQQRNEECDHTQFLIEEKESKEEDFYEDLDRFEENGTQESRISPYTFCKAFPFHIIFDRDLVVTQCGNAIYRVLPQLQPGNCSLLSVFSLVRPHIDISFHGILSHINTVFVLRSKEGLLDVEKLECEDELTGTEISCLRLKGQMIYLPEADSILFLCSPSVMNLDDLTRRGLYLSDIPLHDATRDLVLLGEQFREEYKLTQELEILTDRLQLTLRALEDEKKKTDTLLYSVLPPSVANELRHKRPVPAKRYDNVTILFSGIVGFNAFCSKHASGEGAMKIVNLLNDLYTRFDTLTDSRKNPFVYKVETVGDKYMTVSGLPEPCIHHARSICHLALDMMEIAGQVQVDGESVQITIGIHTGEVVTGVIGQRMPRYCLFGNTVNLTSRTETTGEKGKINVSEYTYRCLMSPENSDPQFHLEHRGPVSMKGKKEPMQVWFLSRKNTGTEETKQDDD
T1 sequence (Q02108 1-690): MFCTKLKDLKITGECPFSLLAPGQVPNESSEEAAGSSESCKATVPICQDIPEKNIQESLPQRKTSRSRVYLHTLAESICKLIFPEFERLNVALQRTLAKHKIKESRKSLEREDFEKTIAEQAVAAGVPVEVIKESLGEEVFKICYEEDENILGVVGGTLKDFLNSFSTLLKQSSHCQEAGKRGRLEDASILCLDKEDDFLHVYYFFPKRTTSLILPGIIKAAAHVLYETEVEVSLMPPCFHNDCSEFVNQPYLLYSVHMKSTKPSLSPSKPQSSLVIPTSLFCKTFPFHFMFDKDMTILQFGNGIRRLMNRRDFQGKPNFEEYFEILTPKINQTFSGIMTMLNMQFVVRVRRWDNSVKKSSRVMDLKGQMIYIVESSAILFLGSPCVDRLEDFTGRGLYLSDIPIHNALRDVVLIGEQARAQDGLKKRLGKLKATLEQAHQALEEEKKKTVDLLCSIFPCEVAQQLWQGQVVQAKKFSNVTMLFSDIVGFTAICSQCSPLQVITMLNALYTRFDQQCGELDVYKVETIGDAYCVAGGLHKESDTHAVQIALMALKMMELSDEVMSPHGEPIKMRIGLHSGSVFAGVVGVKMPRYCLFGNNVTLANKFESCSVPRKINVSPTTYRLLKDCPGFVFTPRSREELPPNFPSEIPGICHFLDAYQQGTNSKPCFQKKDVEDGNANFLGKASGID
Method in brief: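 HEK293 cells with endogenous sGC were pre-treated 15 min at 37 °C with 0.5 mM IBMX, then exposed to test compound plus sodium nitroprusside for 10 min at 37 °C. Cells were lysed in 0.1 M HCl (4 °C, 30 min), and cGMP was quantified by LC/MS against a standard curve. EC50 values came from concentration-response curves.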

[2] = molecular target: T2, Human soluble guanylate cyclase enzyme (hsGC) (Homo sapiens, UniProt Q02108+Q02153); test: Purified human sGC enzyme activity assay (without SNP); type: biochemical; conditions: compound at 30 μM, absence of SNP; fold over DMSO control; Table 5A
T2 construct: purchased Enzo Inc. ALX-201-177
T2 sequence (Q02153 1-619): T1 sequence (Q02153 1-619)
T2 sequence (Q02108 1-690): T1 sequence (Q02108 1-690)
Method in brief: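 Purified human sGC (5 ng) in 0.1 M Tris pH 8.0, 2 mM DTT, 2 mM MgCl2, 300 μM GTP, 1 mM IBMX, with compound at 10 or 30 μM final, 30 min at 37° C.; methanol-stopped. cGMP quantified against a standard curve; specific activity expressed as fold-change over DMSO control.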

[3] = top of concentration-response curve not fitted to 100%
[4] = top of concentration-response curve not fitted to 100%, read-out: HEK assay EC50-unconstrained

Question: Nc1nc(-c2cc(-c3ccon3)n(Cc3ccccc3F)n2)ncc1NC(=O)C1(c2ccccc2)CC1 [Compound 27] was tested. Which Emax [1, 3] did it give?
Answer: 80 to 100%

Question: What about the “HEK MEC-10” value [1] of the same molecule?
Answer: B (0.01 to <0.1 μM)

Question: And the EC50 ([1]; read-out: HEK assay EC50)?
Answer: < 20000 nM

Question: And the EC50 [1, 4]?
Answer: 10 to 500 nM

Question: What about the “Enzyme Activity (increase at 30 μM without SNP)” value [2] of the same molecule?
Answer: D (10 or <20 fold increase)

Question: Which Emax [1, 3] does the source give for Nc1nc(-c2cc(-c3ccon3)n(Cc3ccccc3F)n2)ncc1NC(=O)C1(F)CC1 [Compound 35] here?
Answer: 80 to 100%

Question: What about the “HEK MEC-10” value [1] of the same molecule?
Answer: A (0.001 to <0.01 μM)

Question: And the EC50 ([1]; read-out: HEK assay EC50)?
Answer: < 20000 nM

Question: And the EC50 [1, 4]?
Answer: 10 to 500 nM

Question: What about the “Enzyme Activity (increase at 30 μM without SNP)” value [2] of the same molecule?
Answer: D (10 or <20 fold increase)

Question: For Nc1nc(-c2cc(-c3ccon3)n(Cc3cccc(F)c3F)n2)ncc1NC(=O)C1(C(F)(F)F)CC1 [Compound 40], which Emax [1, 3] is on record?
Answer: 80 to 100%

Question: What about the “HEK MEC-10” value [1] of the same molecule?
Answer: C (0.1 to <1 μM)

Question: And the EC50 ([1]; read-out: HEK assay EC50)?
Answer: < 20000 nM

Question: And the EC50 [1, 4]?
Answer: 10 to 500 nM

Question: And the “Enzyme Activity (increase at 30 μM without SNP)” value [2]?
Answer: C (5 to <10 fold increase)
